{"source": "patent US20020160058A1", "about": "“Antialopecia agent” (priority 1996, published 2002)", "origin": "cited, not measured here", "test_system": "alopecia induced by adriamycin", "conditions": "reported"}
{"substance": "tocopherol", "values": [{"measurement": "effect on alopecia induced by adriamycin", "setting": "oral administration", "value": "preventive effect"}, {"measurement": "effect on alopecia induced by the combined use of adriamycin with other anticancer agents", "value": "no effect"}]}
